Results as given in patent US11752125B2, “Anti-neuroinflammatory and protective compounds in Achillea fragrantissima” (THE STATE OF ISRAEL MINISTRY OF AGRICULTURE & RURAL …, priority 2013, dated 2023).

Tests used:
[1] = tested on: COX-2; experiment: COX-2 transcripts in LPS-stimulated microglial cells (real-time PCR); assay type: cell-based, rat; settings: 20 μg/mL; LPS 4.5 ng/mL, 5 h
Procedure: RNA was extracted by the RNeasy Plus Mini Kit (Qiagen, Hilden, Germany) according to the manufacturer's instructions. Genomic DNA was removed from the RNA samples by using 50 units of RNase-free DNaseI at 37° C. for 1 h. RNA ([…]) was converted to cDNA using the Thermo Scientific Verso cDNA kit (Thermo Fisher Scientific Inc) following the manufacturer's protocol. The cDNA was used for quantitative real-time PCR amplification with TaqMan chemistry (Applied Biosystems) using Rat MMP9, TNFα, IL1β, iNOS, COX2 pre-designed TaqMan Gene Expression Assay from Applied Biosystems (Rn00579162_m1, Rn00562055_m1, Rn00580432_m1, Rn00561646_m1, Rn01483828_m1, respectively). […] All results from three technical replicates were normalized relative to α-Tubulin (Rn01532518.g1) and GAPDH (Rn01775763.g1), respectively, and expressed as relative expression ratios calculated (relative quantity, RQ) using the comparative method and based on the data that were created by the ABI PRISM 7700 Sequence Detection System (using version 1.6 software).
Procedure 23. Measurement of IL-1Beta, TNFalpha, iNOS, COX-2 and MMP-9 Transcripts in LPS-Activated Microglial Cells by Quantitative Real-Time PCR Analysis. • 1. […]
Microglial cells were treated with 20 μg/mL of achillolide A, followed by stimulation with LPS (4.5 ng/mL). […] The results are expressed as percentages relative to LPS-stimulated cells. […]

[2] = tested on: microglial cells; experiment: Viability of microglial cells in MMP-9 experiments (crystal violet); assay type: cell-based, rat; settings: 24 h
Procedure: [formula] In MMP-9 experiments and in the cellular antioxidant activity (CAA) assays, cell viability was determined by a modification of the crystal violet assay. Microglial cells were treated with the indicated concentrations of achillolide A, followed by stimulation with LPS (4.5 ng/mL). Conditioned media were collected 24 h later and tested for MMP-9 activity by gel zymography as shown in FIG. 23 A. The zymogram represents two independent experiments. The levels of MMP-9 transcripts were measured by quantitative real-time PCR. The results from three technical replicates were normalized to β-actin and are expressed as relative quantity of MMP-9 transcripts in FIG. 23 B. The results are means±SD of one representative experiment out of three experiments. Cell viability was determined 24 h later by the crystal violet assay. Values represent the means±SEM (n=4 for each treatment).

[3] = tested on: primary astrocytes; settings: Nones et al., 2012; cited from earlier work

Structure (SMILES)	effect on LPS-induced COX-2 transcript levels [1]	toxicity in MMP-9 experiments [2]	nontoxic concentration in primary astrocytes [3]
C=C1CCC2=C(CO)C(=O)O[C@H]2/C=C(\C)[C@H](OC(C)=O)CC1=O [achillolide A]	significantly inhibited	no toxicity was observed	
O=c1c(O)c(-c2ccc(O)c(O)c2)oc2cc(O)cc(O)c12 [quercetin, 3,3′,4′,5,7-Pentahydroxyflavone, reference compound]			up to 100 μM
